The values below come from patent US11583524B2, “Inhibitors of the interaction between MDM2 and P53” (Janssen Pharmaceutica NV, priority 2007, dated 2023).

The structures appear in SMILES notation.

The test system of series [1] is U87MG glioma cells. The experiment in a line: Alamar Blue cell proliferation assay, U87MG. Type of series: cell-based, human. Conditions: Homo sapiens, U-87 MG, 96 h, 4-day incubation, read-out: U87MG cell proliferation inhibition pIC50 (converted). The protocol:
The human U87MG glioma cells were cultured in DMEM medium supplemented with 2 mM L-Glutamine, 1 mM Sodium Pyruvate, 1.5 g/L Sodium Bicarbonate, 50 μg/ml gentamicin and 10% heat inactivated fetal calf serum. (U87MG cells are human glioblastoma cells with wild type p53. In this cell line MDM2 tightly controls p53 expression).
(§1) Resazurin was purchased from Aldrich (Prod. No. 199303). Potassium ferrocyanide, potassium ferricyanide, KH2PO4 and K2HPO4 were purchased from Sigma (Prod. Nos. P9387, P8131, P5655 and P8281, respectively).
(§2) Potassium Phosphate Buffer 0.1 M (PPB) was made as follows: 2.72 gram KH2PO4 and 13.86 gram K2HPO4 were dissolved in 500 ml milli-Q H2O, the pH was adjusted to pH 7.4 and the volume was brought to 1 litre with milli-Q H2O; the buffer was filter sterilised and stored at room temperature. Resazurin stock solution (PPB-A) was prepared fresh by dissolving 45 mg resazurin in 15 ml PBS. 30 mM potassium ferricyanide (PPB-B) was prepared by dissolving 0.987 gram potassium ferricyanide in 100 ml PPB. 30 mM potassium ferrocyanide (PPB-C) was prepared by dissolving 1.266 gram potassium ferrocyanide in 100 ml PPB.
(§3) Mixture of PPB-A, PPB-B and PPB-C was prepared by mixing equal volumes of the respective solutions. Resazurin work solution (herein termed “Alamar Blue” solution) was prepared by diluting said mixture 20×(vol/vol) in PPB and filter sterilising; the Alamar Blue solution could be kept at 4° C. for a maximum of 2 weeks.
(§4) For experiments in 384 wells plates the cells were seeded at a density of 5×10^3 cells/ml in Falcon 384-well culture plates (Life Technologies, Merelbeke, Belgium), black with clear bottom, in 45 μl culture medium. Cells were allowed to adhere to plastic for 24 hr. The tested compound was pre-diluted (1/50 in culture medium) and 5 μl pre-diluted compound was added to the wells. Following 4-day incubation, 10 μl of the Alamar Blue solution was added to each well and the cells were further incubated for 5 hrs (A2780) or 6 hrs (U87MG) at 37° C. The fluorescence intensity was measured for each well with a Fluorescence plate reader (Fluorskan, Labsystems, 540 nm excitation and 590 nm emission)
(§5) The antiproliferative activity was calculated as percentage of remaining viable cells in treated versus control (untreated cells) conditions. Within an experiment, the result for each experimental condition is the mean of 3 replicate wells. When appropriate, the experiments were repeated to establish full concentration-response curves. When appropriate, IC50-values (concentration of the drug, needed to reduce cell growth to 50% of the control) were computed using probit analysis for graded data (Finney, D. J., Probit Analyses, 2nd Ed. Chapter 10, Graded Responses, Cambridge University Press, Cambridge 1962). Herein the effects of test compounds are expressed as pIC50 (the negative log value of the IC50-value) (see Table 4).
On the technique in general: The colour change of resazurin is a common sign of viable cells or microbes.

Series [2] relates to A2780 ovarian cancer cells. The experiment in a line: Alamar Blue cell proliferation assay, A2780. The format is cell-based, human. Conditions: Homo sapiens, 96 h, 4-day incubation, read-out: A2780 cell proliferation inhibition pIC50 (converted). The protocol:
Cellular activity of the compounds of formula (I) was determined on A2780 tumour cells using a colorimetric assay for cell toxicity or survival (see example C.2).
The human A2780 ovarian cancer cells were a kind gift from Dr. T. C. Hamilton (Fox Chase Cancer Centre, Pennsylvania, U.S.A.). The cells were cultured in RPMI 1640 medium supplemented with 2 mM L-Glutamine, 50 μg/ml gentamicin and 10% fetal calf serum.
as §1, §2, §3, §4, §5

The subject of series [3] is p53 in A2780 cells. The experiment in a line: p53 ELISA (preservation of p53 in A2780 cells). The format is cell-based, human. Conditions: Homo sapiens, lowest dose giving at least 140% of the p53 value in the control, 16 hours treatment, read-out: p53-elisa LAD. The protocol: The capacity of the compounds to preserve p53 in A2780 cells was measured with the p53 enzyme linked immunosorbent assay (ELISA). The p53 assay is a “sandwich” enzyme immunoassay employing two polyclonal antibodies. A polyclonal antibody, specific for the p53 protein, has been immobilized onto the surface of the plastic wells. Any p53 present in the sample to be assayed will bind to the capture antibody. The biotinylated detector polyclonal antibody also recognizes p53 protein, and will bind to any p53, which has been retained by the capture antibody. The detector antibody, in turn, is bound by horseradish peroxidase-conjugated streptavidin. The horseradish peroxidase catalyses the conversion of the chromogenic substrate o-phenylene diamine, the intensity of which is proportional to the amount of p53 protein bound to the plate. The coloured reaction product is quantified using a spectrophotometer. Quantitation is achieved by the construction of a standard curve using known concentrations of purified recombinant HIS tagged p53 protein (see example C.1).
A2780 cells (ATCC) were cultivated in RPMI 1640 supplemented with 10% fetal calf serum (FCS), 2 mM L-glutamine and gentamycin at 37° C. in a humidified incubator with 5% CO2.
A2780 cells were seeded at 20.000 cells per well in a 96 well plate, cultured for 24 hours and treated with compound for 16 hours at 37° C. in a humidified incubator. After incubation, the cells were washed once with phosphate-buffered saline and 30 μl, per well, low salt RIPA buffer (20 mM tris, pH7.0, 0.5 mM EDTA, 1% Nonidet P40, 0.5% DOC, 0.05% SDS, 1 mM PMSF, 1 μg/ml aprotinin and 0.5 μ/ml leupeptin) was added. Plates were placed on ice for 30 minutes to complete the lysis. p53 protein was detected in de lysates by using the sandwich ELISA, described below.
High binding polystyrene EIA/RIA 96 well plates (Costar 9018) were coated with the capture antibody pAb1801 (Abcam ab28-100) at a concentration of 1 μg/ml in coating buffer (0.1 M NaHCO3 pH8.2), 50 μl per well. The antibody was allowed to adhere overnight at 4° C. Coated plates were washed once with phosphate-buffered saline (PBS)/0.05% Tween 20 and 300 μl of blocking buffer (PBS, 1% bovine serum albumins (BSA)) was added, for an incubation period of 2 hours at room temperature. Dilutions of purified recombinant HIS tagged p53 protein, ranging from 3-200 ng/ml, were made in blocking buffer and used as standards.
Plates were washed twice with PBS/0.05% Tween 20 and blocking buffer or standards were added at 80 μl/well. To the standards, 20 μl of lysis buffer was added. The samples were added to the other wells at 20 μl lysate/well. After an overnight incubation at 4° C., plates were washed twice with PBS/0.05% Tween 20. Aliquots of 100 μl secondary polyclonal antibody p53(FL-393) (Tebubio, sc-6243) at a concentration of 1 μg/ml in blocking buffer were added to each well and allowed to adhere for 2 hours at room temperature. Plates were washed three times with PBS/0.05% Tween 20. Detection antibody anti-rabbit HRP (sc-2004, Tebubio) at 0.04 μg/ml in PBS/1% BSA was added and incubated for 1 hour at room temperature. Plates were washed three times with PBS/0.05% Tween 20 and 100 μl of substrate buffer was added (substrate buffer was prepared shortly before use by adding 1 tablet of 10 mg o-phenylene diamine (OPD) from Sigma and 125 μl 3% H2O2 to 25 ml OPD buffer: 35 mM citric acid, 66 mM Na2HPO4, pH5.6). After 5 to 10 minutes, colour reaction was stopped by adding 50 μl stop buffer (1 M H2SO4) per well. The absorbance at dual wavelengths of 490/655 nm was measured using a Biorad micro plate reader and the results were then analyzed.
For each experiment, controls (containing no drug) and a blank incubation (containing no cells or drugs) were run in parallel. The blank value was subtracted from all control and sample values. For each sample, the value of p53 (in absorbance units) was expressed as the percentage of the value for p53 present in the control. […]

For the compound `COc1c(Nc2ccnc3c2CCC3O)ccc(NCCc2c[nH]c3c(OC)cccc23)c1F` (stereo not shown) [Compound 49], the melting point (in general, the temperature of the solid-liquid transition) was determined as 123 °C. In addition, the IC50 in series [1] is 0.646 µM. Also, the IC50 in series [2] is 0.501 µM. In addition, the minimal effective concentration in series [3] is 1 µM.

Compound `CC(=O)Nc1cc(NCCc2c[nH]c3ccccc23)c(F)cc1Nc1ccncc1` [Compound 50] gave a melting point of 241 °C. Also, in series [1], the IC50 was above 10 µM. Moreover, the IC50 in series [2] is above 10 µM. For the same compound, the minimal effective concentration in series [3] was above 10 µM.

For `OCc1cc(NCCc2c[nH]c3ccccc23)c(Br)cc1Nc1ccnc2ccccc12` [Compound 53], the melting point stood at 192 °C. Also, the IC50 in series [1] is 3.98 µM. Also, in series [2], the IC50 is above 10 µM. Also, the minimal effective concentration in series [3] is above 10 µM.

Consider `Cl.N#Cc1c(NCCc2c[nH]c3ccccc23)ccc(Nc2ccncc2)c1N1CCOCC1` [Compound 55], for which the melting point is 245 °C. The IC50 in series [1] is above 10 µM. In addition, the IC50 in series [2] is above 10 µM. In series [3], the minimal effective concentration is above 10 µM.
